Assay results taken from patent US20050277625A1, “Estriol and estetrol prodrugs” (priority 2004, published 2005).

Assays:
[1] = tested on: uterus and vagina weight; assay: Interaction of estrogens with progesterone in uterus and vagina of ovariectomized guinea pigs; format: in vivo; settings: OVX guinea pigs, 7 days s.c., with 3.0 mg progesterone per animal per day
Description: Adult guinea pigs were ovariectomized and treated for 2 weeks after this operation over 7 days with estradiol or estriol over a large dose range. […] The effects of this treatment on the genital organs was raised on the 8th test day.

[2] = tested on: angiotensinogen, total cholesterol and HDL cholesterol in serum; assay: Hepatic effects in ovariectomized rats (estrogen-modulated factors of hepatic secretion in serum); settings: for Angiotensin 1 ED50 (dose which produces an increase by 50% vs. OVX control) / HDL Cholesterol ED50 (dose which produces a drop by 50% vs. OVX control) / Total Cholesterol ED50 (dose which produces a drop by 50% vs. OVX control): oral, days 1-3, serum
Protocol: (§1) Table 1 illustrates the estrogenic activity in the case of oral administration and liver toxicity (hepatic effects) based on data of selected compounds in in-vivo tests with rats.
(§2) Adult Wistar rats are ovariectomized and are brought into the test after a 14-day waiting period. The animals are then treated for over three days (days 1-3) and then sacrificed (day 4). Then, the organ weights are determined and estrogen-modulated factors of hepatic secretion in serum are determined, which in the rat are the increase of angiotensinogen and the drop in total cholesterol and HDL cholesterol.

[3] = tested on: uterus weight; assay: Estrogenic activity in ovariectomized rats, oral administration (uterus weight); format: in vivo, Wistar rats; settings: for Uterus Weight UVD (Uterus Doubling Dose vs. OVX): treatment days 1-3, sacrifice day 4
Protocol: as §1, §2

[4] = target: Human Carboanhydrase I (Homo sapiens, UniProt P00915); assay: Inhibition of carboanhydrase I (CO2 hydration); format: biochemical; settings: read-out: CAI IC50
Protocol: Carboanhydrases catalyze the CO2 hydration.
Test preparation: A constant CO2 stream is directed by a buffer that was mixed with carboanhydrase I. The time that is required to reduce the pH within defined limits is a measuring parameter. This parameter reflects the formation of H2CO3 in the medium. IC50 inhibiting values are determined by test substances being pipetted into the test preparation.

[5] = tested on: erythrocytes; assay: Binding to erythrocytes: displacement of 14C-estradiol sulfamate; design: species or system Human; settings: for RBA to Erythrocytes: human blood, relative to estradiol-3-sulfamate = 100; for bonds to erythrocytes (in words): m-substituted compounds
Protocol: The SO2—NH2 group of the substances according to the invention can result in a concentration in erythrocytes by binding to carboanhydrases. The displacement of estradiol-3-sulfamate from the erythrocyte bond by test substances is measured.
Test preparation: Human blood is mixed with a mixture that consists of ^14C-labeled and unlabeled estradiol sulfamate. The erythrocytes are saturated at the selected working point, and the distribution in plasma/erythrocytes is 40:60. A second blood sample is mixed with a mixture that consists of ^14C-labeled estradiol sulfamate and unlabeled test substance. The relative binding affinity is calculated from the proportion of ^14C-labeled estradiol sulfamate in plasma: higher proportion=strong displacement of ^14C-estradiol sulfamate from the erythrocytes by the test substance=high binding affinity.

[6] = female, Wistar, rat, in vivo, 3 days
[7] = rats, oral, compared with compound 10 or compound 1

Sequence of Human Carboanhydrase I (P00915 whole entry): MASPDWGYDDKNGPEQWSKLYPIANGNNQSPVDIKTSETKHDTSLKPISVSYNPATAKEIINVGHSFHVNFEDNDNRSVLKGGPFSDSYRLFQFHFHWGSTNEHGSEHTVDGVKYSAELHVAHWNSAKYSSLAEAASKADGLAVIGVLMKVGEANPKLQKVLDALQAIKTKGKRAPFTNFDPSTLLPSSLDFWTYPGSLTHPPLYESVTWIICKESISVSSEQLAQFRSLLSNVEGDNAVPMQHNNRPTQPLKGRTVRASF

Structure (SMILES) | uterotropic actions in combination with progesterone ([1]; uterus) | increase in weight of the vagina in combination with progesterone ([1]; vagina) | Angiotensin 1 ED50 (dose which produces an increase by 50% vs. OVX control) ([2]; OVX rats) | HDL Cholesterol ED50 (dose which produces a drop by 50% vs. OVX control) ([2]; OVX rats) | Total Cholesterol ED50 (dose which produces a drop by 50% vs. OVX control) ([2]; OVX rats) | rel. hep. Akt. (relative hepatic activity vs. uterotropic activity), HDL Cholesterol ([2]; OVX rats, HDL cholesterol ED50 relative to UVD) | rel. hep. Akt. (relative hepatic activity vs. uterotropic activity), Angiotensin 1 ([2]; OVX rats, angiotensin 1 ED50 relative to UVD) | rel. hep. Akt. (relative hepatic activity vs. uterotropic activity), Total Cholesterol ([2]; OVX rats, total cholesterol ED50 relative to UVD) | Uterus Weight UVD (Uterus Doubling Dose vs. OVX) ([3]; OVX rats, oral) | increase of the uterus weight (doubling) ([3]; OVX rats, estriol even at very high dosages) | IC50 [4] | rel. hep. Akt. (relative hepatic activity vs. uterotropic activity), Angiotensin 1 [2, 6] | rel. hep. Akt. (relative hepatic activity vs. uterotropic activity), HDL Cholesterol [2, 6] | rel. hep. Akt. (relative hepatic activity vs. uterotropic activity), Total Cholesterol [2, 6] | RBA to Erythrocytes [5] | bonds to erythrocytes (in words) [5] | estrogenic activity in the case of oral administration [3, 7] | oral bioavailability [3, 7]
C[C@]12CC[C@@H]3c4ccc(O)cc4CC[C@H]3[C@@H]1C[C@@H](O)[C@@H]2O [Estriol] | clearly enhanced | not enhanced or is not enhanced to the same extent | 7.6 μg/T/T | 110.7 μg/T/T | 79 μg/T/T | <0.1 | <0.008 | <0.08 | >1000 μg/T/T | did not bring about a doubling of the uterus weight |  |  |  |  |  |  |  | 
C[C@]12CC[C@@H]3c4ccc(O)cc4CC[C@H]3[C@@H]1C[C@@H](O)[C@@H]2OC(=O)c1cccc(S(N)(=O)=O)c1 [Compound 7, 3,16α-Dihydroxyestra-1,3,5(10)-trien-17β-yl 3′-sulfamoylbenzoate] |  |  | 8.9 μg/T/T | 6.0 μg/T/T | 4.8 μg/T/T |  |  |  | 137.5 μg/T/T |  | 600 nM | 0.06 | 0.04 | 0.03 | 0.5 | only very weak bonds were detected | higher estrogenic activity | higher
C[C@]12CC[C@@H]3c4ccc(O)cc4CC[C@H]3[C@@H]1C[C@@H](OC(=O)c1cccc(S(N)(=O)=O)c1)[C@@H]2O [Compound 10, 3,17β-Dihydroxyestra-1,3,5(10)-trien-16α-yl 3′-sulfamoylbenzoate] |  |  | 5.7 μg/T/T | 18.6 μg/T/T | 10.7 μg/T/T |  |  |  | 378.2 μg/T/T |  | 450 nM | 0.015 | 0.49 | 0.028 | 0.4 | only very weak bonds were detected |  | 
C[C@]12CC[C@@H]3c4ccc(OS(N)(=O)=O)cc4CC[C@H]3[C@@H]1CC[C@@H]2O [Estradiol-3-sulfamate, reference compound] |  |  |  |  |  |  |  |  |  |  | 157 ± 10.6 nM |  |  |  | 100 |  |  | 
C[C@]12CC[C@@H]3c4ccc(O)cc4CC[C@H]3[C@@H]1C[C@@H](OC(=O)c1ccc(S(N)(=O)=O)cc1)[C@@H]2O [Compound 4, 3,17β-Dihydroxyestra-1,3,5(10)-trien-16α-yl 4′-sulfamoylbenzoate] |  |  |  |  |  |  |  |  |  |  |  |  |  |  | 2.6 |  |  | 
C[C@]12CC[C@@H]3c4ccc(O)cc4CC[C@H]3[C@@H]1C[C@@H](O)[C@@H]2OC(=O)c1ccc(S(N)(=O)=O)cc1 [Compound 1, 3,16α-Dihydroxyestra-1,3,5(10)-trien-17β-yl 4′-sulfamoylbenzoate] |  |  | 17.4 μg/T/T | 45.9 μg/T/T | 39.9 μg/T/T |  |  |  | 162.6 μg/T/T |  | 200 nM | 0.12 | 0.28 | 0.25 |  |  |  | 
